From patent US9416173B2, “Peptide and conjugate vaccines for fungal infections” (priority 2011, dated 2016)

Legend:
[1] = system: synthetic peptides; test: ELISA antibody responses to peptide-pulsed DC vaccines; type: in vivo, BALB/c mice; conditions: general fungal peptides, peptide-pulsed DC + CFA
Procedure: The murine dendritic cells (DCs) were pulsed in vitro with peptide candidate vaccine antigens as previously described (53). Briefly, DCs in culture were pulsed with the peptide antigen (1 μM) on day 6. On day 7, PGE2 (10^-7M) was added along with LPS (2 μg/ml, Sigma-Aldrich) for 24 h. On day 9, antigen-pulsed DCs were washed extensively and 5×10^5 in 200 μl DPBS were given intraperitoneally (i.p.) as the priming dose to mice. The mice were boosted i.p. at day 14 with fresh antigen-pulsed DCs and boosted a second time at day 28 with antigen (10 μg) emulsified in complete Freund adjuvant (CFA) given subcutaneously (s.c.).
Sera were ELISA analyzed for antibody titers. For DC-based immunization, control groups consisted of mice given DCs alone at the time of priming and first booster followed by CFA alone at the time of the second booster, or DPBS alone for all three injections. For Fba peptides administered with alum or MPL, control groups were mice given adjuvant alone or DPBS buffer. […] Synthetic Fba-MAP (GenScript) was dissolved at 5 μg/ml in PBS (pH 7.4) and used to coat 96-well ELISA plates for testing duplicate serial 2-fold dilutions of samples of each immune serum and control sera. Color development for each well was achieved by use of secondary antibody (goat anti-mouse polyvalent Ig-HRP) and substrate (O-phenylenediamine and H2O2) and OD determined at 492 nm.
FIGS. 1A-1C show the antibody responses in BALB/c mice against peptide-pulsed DC vaccines. Sera from mice immunized with the six synthetic peptide carriers presented on dendritic cells (DCs) for the priming and first booster immunizations and emulsified in complete Freund adjuvant (CFA) for the second booster were tested by ELISA for antibody responses against the peptides. Control groups consisted of mice given the same regimen for priming and boosters except that the peptides were omitted (DCs+CFA) or DPBS only was used at each injection time. […] The bars of each panel indicate means of CFUs per kidney pair for each group. The lowest limit of detection for the CFU assay is 50 CFU per kidney pair.
Sera were ELISA analyzed for antibody titers. Control groups consisted of mice given DCs alone at the time of priming and first booster followed by DPBS at the time of the second booster, DPBS for the priming and first booster and CFA alone at the time of the second booster, DPBS alone for all three injections, or DCs alone for priming and first booster followed by CFA alone at the time of the second booster. Briefly, synthetic peptides were dissolved at 10 μg/ml in PBS (pH 7.4). […] Color development for each well was achieved by secondary antibody (goat anti-mouse polyvalent immunoglobulin-HRP, Sigma) and substrate (O-phenylenediamine and H2O2) and Optical Density (OD) determined at 492 nm.

[2] = system: C. albicans; test: Immunofluorescence and flow cytometric analysis of binding to fungal cell surface; type: cell-based; conditions: live fungal cells reacted with immune serum of peptide-immunized mice
Procedure: Distribution of the Fba peptide epitope on yeast cells was determined by indirect immunofluorescence. […] The yeast cells were suspended in the antibody preparation and incubated while shaking by rotation at room temperature (RT, 22-24° C.) for 1-2 h. After incubation, the yeast cells were washed with DPBS three times, suspended in 200 μl of fluorescein-labeled goat anti-mouse IgM (u-chain specific; Sigma) (stock solution, 1 mg/ml; working solution, 20 μg/ml of DPBS) and incubated at RT as described above for 0.5 h. The yeast cells were washed with DPBS three times and suspended in 200 μl of DPBS. The cells were observed by confocal microscopy (LSM 510, Zeiss). The distribution of the Fba peptide epitope on the yeast cell surface was compared to that obtained with yeast cells fluorescently stained for detection of the MAb B6.1 epitope. […] For flow cytometric analysis, following the last incubation, cells were washed as described above and suspended in the 500 μl DPBS buffer. Flow cytometry was performed using a BD Biosciences FACSVantage SE equipped with an argon laser excitation at 488 nm. 10,000 cells in each sample were analyzed (CellQuest Pro software).
Distribution of the β-(Man)3 and Fba peptide epitopes on yeast cells was determined by use of immune serum for flow cytometric analysis and indirect immunofluorescence. One hundred microliters of immune serum (1:100 dilution in 1% BSA/DPBS) was added to a pellet of C. albicans yeast cells (5×10^6) that was prewashed with DPBS buffer three times. The yeast cells were suspended in the immune serum [from β-(Man)3-Fba-TT immunized mice] preparation and incubated while shaking by rotation at room temperature (RT, 22-24° C.) for 1-2 h. After incubation, the yeast cells were washed with DPBS three times, suspended in 200 μl of fluorescein-labeled goat anti-mouse IgM (μ-chain specific; Sigma) (stock solution, 1 mg/ml; working solution, 20 μg/ml of DPBS) and incubated at RT described above for 0.5 h. The yeast cells were washed with DPBS three times and suspended in 500 μl of DPBS. Flow cytometry was performed using a BD Biosciences FACSVantage SE equipped with an argon laser excitation at 488 nm. 10,000 cells in each sample were analyzed (CellQuest Pro software).
For immunofluorescence assays, the fungal cells were immunostained and washed as described above and suspended in the 200 μl DPBS buffer. The cells were observed by confocal microscopy (LSM 510, Zeiss). The distribution of the β-(Man)3 and Fba peptide epitopes on the yeast cell surface was compared to that obtained with yeast cells fluorescently stained for detection of the MAb B6.1 epitope.

[3] = system: C. albicans strain 3153A; test: Fungal challenge and assessment of protection (disseminated candidiasis), peptide vaccines; type: in vivo, BALB/c mice; conditions: for survival rate: general peptides, experiment terminated 80 days post challenge; for protection against disseminated candidiasis (survival) / viable fungal units (CFUs) in kidneys: peptide-pulsed DC vaccine; for protection against disseminated candidiasis (survival): vs DPBS or DCs+CFA controls; for viable fungal units (CFUs) in kidneys: vs controls, detection limit 50 CFU per kidney pair
Procedure: C. albicans 3153A and SC5314, C. krusei (ATCC 6258), C. glabrata (ATCC 2001) and Saccharomyces cerevisiae (ATCC 9463) were obtained from the American Type Culture Collection (ATCC; Manassas, Va.) and were grown as stationary-phase yeast cells in glucose-yeast extract-peptone broth at 37° C., washed and suspended to the appropriate cell concentration (5×10^6/ml) in Dulbecco's PBS (DPBS; Sigma-Aldrich, St. Louis, Mo.), and used to infect mice intravenously (i.v.) as previously described (25, 29). C. albicans strain 3153A was also used for serum antibody absorption, immunofluorescence staining and flow cytometric analysis. Unless otherwise indicated, C. albicans strain 3153A was used to challenge the mice in the examples below.
(§1) Two weeks after the second boost, immune and control mice were infected intravenously (i.v.) with a lethal dose of live C. albicans yeast cells (5×10^5 in 0.1 ml of DPBS) prepared as described above and as before (53). Passively immunized mice (below) also received the same challenge dose. Protection was evaluated by monitoring animal survival for 80-100 days. The mice were monitored 2-3 times daily for the development of a moribund state, defined as being listless, disinterested in food or water, and nonreactive to finger probing. At the time that a mouse was deemed moribund, it was sacrificed and their kidneys (for some experiments, brains) were homogenized in DPBS and plated onto a nutrient agar to determine colony forming units (CFUs). After 80-100 days, the experiments were terminated and all the survivors at that time were sacrificed and their kidneys were assessed for CFU as before. The lowest limit of detection for the CFU assay was 50 CFU per kidney pair.
Two weeks after the second boost, immune and control mice were infected i.v. with a lethal dose of live C. albicans yeast cells (5×10^5 in 0.1 ml of DPBS). Passively immunized mice also received the same challenge dose. Protection was evaluated by monitoring animal survival for up to 120 days and by quantifying the number of CFU (mean±SE) per kidney pairs. Median survival times (MST) were statistically evaluated by Kaplan-Meier (GraphPad Prism, version 4). In all analyses, there were five mice per group (n=5), and a two-tailed t test was used.

[4] = system: anti-Fba antibodies in immune sera; test: ELISA inhibition assay with modified Fba peptides as inhibitors; type: binding, mice; conditions: compared with original Fba inhibition curve
Procedure: (§2) The specificity of MAb E2-9 for Fba peptide was determined by an inhibition ELISA as described previously (52, 53). Briefly, Fba-MAP was dissolved in DPBS (5 μg/ml), and the solution was used to coat 96-well ELISA plates (100 μl, overnight at 4° C.). The wells were washed five times with PBST (PBS containing Tween 20, 0.05% [vol/vol] and blocked with 1% bovine serum albumin-PBST. MAb E2-9 produced as described above, was serially diluted up to 10,000 for ELISA measurements. Unless otherwise stated, the serum was diluted 1:100 dilution in DPBS to determine the content of antibody by ELISA. MAb E2-9 was mixed with Fba peptide (inhibitor) (dissolved in PBST at a concentration between 0.1 μM and 1 mM), and the resulting solution of each concentration was added to the Fba-MAP coated microtiter wells (solid phase) in triplicate and incubated at 21 to 23° C. for 2 h. Unless otherwise stated, the concentration of test antigens used to coat the wells was about 5-10 μg/ml. The wells were washed three times with PBST, and goat anti-mouse heavy chain specific for IgM was HRP-conjugated (diluted 1:10,000 in PBST) (Sigma) and 100 μl was added to the corresponding wells and incubated for 1 h at 21 to 23° C. The wells were washed five times with PBST, followed by addition of 100 μl of substrate solution (25 ml of 0.05 M phosphate-citrate buffer [pH 5.0], 200 μl of an aqueous solution of O-phenylenediamine 50 mg/ml [Sigma], and 10 μl of 30% H2O2). Color was allowed to develop for 10 min, stopped by addition of […] of 2 M H2SO4, and read at 492 nm (microtiter plate reader, model 450; Bio-Rad, Richmond, Calif.). The percent inhibition was calculated relative to wells containing antibody without inhibitor.
The specificity of anti-Fba antibodies in immune sera was tested for the modified Fba peptides as determined by ELISA inhibition assay. Peptide 1, original Fba, which was used as an inhibitor, was included as a positive control. The inhibition curve of FIG. 17 serves to compare the curves with the other modified peptides 2-11. FIGS. 18A, 18B, 18C, and 18D show the results of ELISA inhibition assays for peptide 2, peptide 3, peptide 4 and peptide 5, respectively. Each methylated peptide was used as an inhibitor in the designated assay. […] The reaction is dose-dependent for each group, indicating anti-Fba antibodies in immune sera were specific for the modified peptides. […] The binding of peptide 11, which has two extra cysteines may indicate that the binding site of Fba with antibody is located at the carboxyl part of the peptide.

[5] = system: MAb E2-9; test: Inhibition ELISA (MAb E2-9 on Fba-MAP coated wells, Fba peptide as inhibitor); type: binding; conditions: soluble Fba peptide inhibiting MAb E2-9 reactivity with solid phase Fba-MAP
Procedure: as §2, with “The wells were washed three times with PBST, and goat anti-mouse heavy chain specific for IgM was HRP-conjugated (diluted 1:10,000 in PBST) (Sigma) and 100 μl was added to the corresponding wells and incubated for 1 h at 21 to 23° C. The wells were washed five times with PBST, followed by addition of 100 μl of substrate solution (25 ml of 0.05 M phosphate-citrate buffer [pH 5.0], 200 μl of an aqueous solution of O-phenylenediamine 50 mg/ml [Sigma], and 10 μl of 30% H2O2).” left out

[6] = system: Fba peptide; test: Rabbit antisera against the Fba peptide (titers); type: in vivo; conditions: Fba conjugated to KLH; each of two rabbits; commercial source (Genscript); data not shown
Excerpt: To obtain enough antisera for passive transfer experiments, and to determine whether the Fba peptide is immunologically restricted in other animal species, we obtained rabbit antisera against the peptide from a commercial source (Genscript). Fba was conjugated to keyhole limpet hemocyanin (KLH) prior to the rabbit immunizations.

[7] = system: Fba peptide; design: species or system BALB/c mice; conditions: mouse, in vivo
[8] = system: C. albicans strain SC5314; test: Fungal challenge and assessment of protection, strain SC5314; type: in vivo, BALB/c mice; conditions: Fba peptide by dendritic cell approach
Procedure: as §1
To test if vaccination with the Fba peptide pulsed DCs protects mice challenged with a different C. albicans strain, we challenged immunized mice with C. albicans strain SC5314 (ATCC), which is the most commonly used clinical isolate of C. albicans for research purposes. As a positive control, a second group of mice immunized at the same time were challenged with C. albicans strain 3153A.

[9] = system: Fba peptide; test: ELISA antibody responses against the Fba peptide in C57BL/6 mice; type: in vivo; conditions: DC-based immunization; 14 days after second booster
Procedure: By the same DC-based immunization approach used for the BALB/c mice as described above, C57BL/6 mice was tested with the Fba peptide was given alone or as a glycoconjugate compared to the control groups of mice injected with DPBS buffer, or DCs+CFA.
Fourteen days after the second booster, immune sera were tested by ELISA for antibody responses against the Fba peptide.

SSSTVVAAL [Fba4]
antibody responses (ELISA, plates coated with the peptide) [1]: able to induce antibody responses
binding of antibody in the immune serum to the peptides expressed on C. albicans cell surface (flow cytometric analysis) [2]: expressed on the fungal surface and are accessible to antibodies in immune sera
survival rate ([3]; DC immunization): 60%

YGKDVKDLFDYAQE (methylated at position 1) [Pep2]
effect on peptide-antibody binding (ELISA inhibition, peptide as inhibitor) [4]: little effect on peptide-antibody binding

QGETEEALIQKRSY [Hwp1]
protection against disseminated candidiasis (survival) [3]: a high degree of protection
viable fungal units (CFUs) in kidneys [3]: low or even non-detectable

YGKDVKDLFDYAQE (methylated at positions 1 and 8) [Pep10]
effect on peptide-antibody binding (ELISA inhibition, peptide as inhibitor) [4]: bound well to antibody

YGKDVKDLFDYAQE (methylated at position 5) [Pep5]
effect on peptide-antibody binding (ELISA inhibition, peptide as inhibitor) [4]: little effect on peptide-antibody binding

FAIPAINVTSSSTVVAALE [Fba3]
antibody responses (ELISA, plates coated with the peptide) [1]: able to induce antibody responses
binding of antibody in the immune serum to the peptides expressed on C. albicans cell surface (flow cytometric analysis) [2]: expressed on the fungal surface and are accessible to antibodies in immune sera
survival rate ([3]; DC immunization): 80%

YGKDVKDLFDYAQE (methylated at position 2) [Pep3]
effect on peptide-antibody binding (ELISA inhibition, peptide as inhibitor) [4]: little effect on peptide-antibody binding

FAIPAINVTSSSTV [Fba2]
antibody responses (ELISA, plates coated with the peptide) [1]: good and specific antibody responses
protection (survival) vs DC+CFA control ([3]; general peptides experiment, DC immunization): failed to induce good protection

NRSPSTGEQKSSGI [Gap1]
protection against disseminated candidiasis (survival) [3]: neither of two other peptides Gap1, or Eno1 induced protection
viable fungal units (CFUs) in kidneys [3]: slightly less fungal burden

VPLDGKTITNNQRI [Pgk1]
protection against disseminated candidiasis (survival) [3]: some protection
viable fungal units (CFUs) in kidneys [3]: low or non-detectable CFUs

YGKDCVKCDLFDYAQE (cysteine added at positions 5 and 8) (cysteines added at positions 5 and 8) [Pep 11]
effect on peptide-antibody binding (ELISA inhibition, peptide as inhibitor) [4]: bound well to antibody

PRIGGQRELKKITE [Met6]
protection against disseminated candidiasis (survival) [3]: a high degree of protection
viable fungal units (CFUs) in kidneys [3]: low or even non-detectable

YGKDVKDLFDYAQE [Fba]
binding of antibody in the immune serum to the peptides expressed on C. albicans cell surface (flow cytometric analysis) [2]: expressed on the fungal surface and are accessible to antibodies in immune sera
concentration of inhibitor (Fba peptide) required to achieve 50% inhibitory concentration [5]: about 10 μg/ml
Titers of anti-Fba peptide immune sera [6]: 512,000
anti-Fba IgM and IgG antibodies in sera [7]: very low levels of anti-Fba IgM and IgG antibodies
survival time ([8]; vs DCs+CFA or DPBS (P<0.01)): significant prolonged survival time
CFUs in kidneys ([8]; vs controls (P<0.01)): greatly reduced or non-detectable CFUs
protection against disseminated candidiasis (survival) [3]: a high degree of protection
viable fungal units (CFUs) in kidneys [3]: low or even non-detectable
antibody responses against the Fba peptide (ELISA, Fba-MAP coated plates) [9]: strong antibody responses

YDQVLDLSLLFNAIP [Met6-2]
antibody responses (ELISA, plates coated with the peptide) [1]: able to induce antibody responses
binding of antibody in the immune serum to the peptides expressed on C. albicans cell surface (flow cytometric analysis) [2]: expressed on the fungal surface and are accessible to antibodies in immune sera
survival rate ([3]; DC immunization): 80%

YGKDVKDLFDYAQE (methylated at position 3) [Pep4]
effect on peptide-antibody binding (ELISA inhibition, peptide as inhibitor) [4]: little effect on peptide-antibody binding

DSRGNPTVEVDFTT [Eno1]
protection against disseminated candidiasis (survival) [3]: neither of two other peptides Gap1, or Eno1 induced protection
viable fungal units (CFUs) in kidneys [3]: slightly less fungal burden
